For 16 compounds, IC50 results are on record in patent US8455497B2, “Inhibitors of aspartyl protease” (Vertex Pharmaceuticals Incorporated, priority 1999, dated 2013).

Broadly, the IC50 is the concentration needed to halve the response being measured.

In one assay the test system is HIV-1 (strain IIIB). Briefly: Antiviral activity assay in MT4 cells (propidium iodide based). It counts as cell-based. The gist of the method: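 MT4 cells infected with HIV-1 IIIB (MOI 100×TCID50, 1 hr, 37°C), diluted 6-fold into wells with serially diluted compound, incubated 5 days. Cells lysed with Nonidet-40; DNA content per well estimated by propidium iodide staining as the viability read-out, with mock-infected controls.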

In assay [1] the test system is D545701-14 multi protease inhibitor resistant virus. As to the kind of experiment: Anti-viral activity against resistant virus D545701-14 in MT4 cells. The class given is cell-based, HIV-1. The method, then: (§1) Exponentially growing MT4 cells were harvested and centrifuged at 1000 rpm for 10 min in a Jouan centrifuge (model CR 4 12). […] Cell aliquots were infected by the addition of HIV-1 (strain IIIB) diluted to give a viral multiplicity of infection of 100×TCID50. […] Cell infection was allowed to proceed for 1 hr at 37° in a tissue culture incubator with humidified 5% CO2 atmosphere. After the 1 hr incubation the virus/cell suspensions were diluted 6-fold with fresh medium, and 125 μl of the cell suspension was added to each well of the plate containing pre-diluted compound. Plates were then placed in a tissue culture incubator with humidified 5% CO2 for 5 days. At the end of the incubation period, 27 μl of 5% Nonidet-40 was added to each well of the incubation plate. After thorough mixing with a Costar multitip pipetter, 60 μl of the mixture was transferred to filter-bottomed 96-well plates. The plates were analyzed in an automated assay instrument (Screen Machine, Idexx Laboratories). The assay makes use of a propidium iodide dye to estimate the DNA content of each well.
(§2) Anti-Viral Activity Against Resistant Viruses
EP13 and DS45701, two multi protease inhibitor resistant viruses were used to assess potency against mutant viruses. These viruses contain the following mutations relative to the consensus sequence of wild type virus: […]

The test system of assay [2] is EP13 multi protease inhibitor resistant virus. Briefly: Anti-viral activity against resistant virus EP13 in MT4 cells. It counts as cell-based, HIV-1. The procedure:
as §1, §2
EP13 and DS45701, two multi protease inhibitor resistant viruses were used to assess potency against mutant viruses. These viruses contain the following mutations relative to the consensus sequence of wild type virus:
EP13: Protease amino acid sequence: M46I, L63P, A71V, V82F/L, I84V; No reverse transcriptase mutations.

[3] abbreviates: wild type HIV-1 virus, MT4 cells, read-out: Wildtype virus - IC50.
[4] abbreviates: D545701-14 multi protease inhibitor resistant virus, MT4 cells, read-out: D545701-14 mutant - IC50.
[5] abbreviates: EP13 multi protease inhibitor resistant virus, MT4 cells, read-out: EP13 mutant IC50.
The mark [6] stands for this setting: Human immunodeficiency virus 1, IIIB, wild type HIV-1 virus, MT4 cells, read-out: Wildtype virus - IC50.
The mark [7] stands for this setting: Human immunodeficiency virus 1, MT4, 120 h, MT-4 cells, HIV-1 strain IIIB, 5 days, read-out: IC50 (Antiviral Activity of Compounds of the Invention).
[8] abbreviates: Human immunodeficiency virus 1, MT4, read-out: D545701-14 mutant - IC50, D545701-14 multi protease inhibitor resistant virus, MT4 cells.
Setting [9] is: Human immunodeficiency virus 1, MT4, read-out: EP13 mutant IC50, EP13 multi protease inhibitor resistant virus, MT4 cells.
[10] abbreviates: Human immunodeficiency virus 1, MT4, read-out: D545701-14 mutant - IC50.
[11] abbreviates: Human immunodeficiency virus 1, MT4, read-out: EP13 mutant IC50.

Molecules are shown by their SMILES. Like-named read-outs stand apart in the source and are kept apart here. Bounds are passed on as bounds.

As for `CC(=O)NCCCOc1ccc(C[C@H](NC(=O)O[C@H]2CO[C@H]3OCC[C@H]32)[C@H](O)CN(CC(C)C)S(=O)(=O)c2ccc3c(c2)OCO3)cc1` [Compound 229], the IC50 in the assay with HIV-1 (strain IIIB) (setting [3]) was in the range of 10 to 100 nM; in assay [1] (setting [4]) it was 1 to 10 nM; in assay [2] (setting [5]), 1 to 10 nM.
On to `CC(C)CN(C[C@@H](O)[C@H](Cc1ccc(OCc2cccnc2)cc1)NC(=O)O[C@H]1CO[C@H]2OCC[C@H]21)S(=O)(=O)c1ccc2c(c1)OCO2` [Compound 52, Bis-THF Methylenedioxybenzenesulfonamide 3-picolyl Tethered Product], for which the 50% inhibitory concentration (IC50) in the assay on HIV-1 (strain IIIB) (setting [6]) fell in the range of 10 to 100 nM; with HIV-1 (strain IIIB) (setting [7]), 1 to 10 nM; in assay [1] (setting [8]), 1 to 10 nM; in assay [2] (setting [9]), 1 to 10 nM.
`O=C(N[C@@H](Cc1ccc(OCc2ccccc2)cc1)[C@H](O)CN(CC1CCCC1)S(=O)(=O)c1ccc2c(c1)OCO2)O[C@H]1CO[C@H]2OCC[C@H]21` [Compound 395, (3R,3aS,6aR)-hexahydrofuro[2,3-b]furan-3-yl (1S,2R)-3-[(1,3-benzodioxol-5-ylsulfonyl) (cyclopentylmethyl)amino]-1-[4-(benzyloxy)benzyl]-2-hydroxypropylcarbamate]: the half-maximal inhibitory concentration (IC50) (with HIV-1 (strain IIIB) (setting [6]); in assay [1] (setting [8]); in assay [2] (setting [9])) was 1 to 10 nM each time.
As for `CC(C)CN(C[C@@H](O)[C@H](Cc1ccc(OCCCn2ccnc2)cc1)NC(=O)O[C@H]1CO[C@H]2OCC[C@H]21)S(=O)(=O)c1ccc2c(c1)OCO2` [Compound 278, (3R,3aS,6aR)-hexahydrofuro[2,3-b]furan-3-yl (1S,2R)-3-[(1,3-benzodioxol-5-ylsulfonyl)(isobutyl)amino]-2-hydroxy-1-{4-[3-(1H-imidazol-1-yl)propoxy]benzyl}propylcarbamate], the IC50 was 10 to 100 nM in the assay on HIV-1 (strain IIIB) (setting [6]), 1 to 10 nM in assay [1] (setting [8]) and 1 to 10 nM in assay [2] (setting [9]).
`CNC(=O)NCCOc1ccc(C[C@H](NC(=O)O[C@H]2CO[C@H]3OCC[C@H]32)[C@H](O)CN(CC(C)C)S(=O)(=O)c2ccc3c(c2)OCO3)cc1` [Compound 358, (3R,3aS,6aR)hexahydrofuro[2,3-b]furan-3-yl (1S,2R)-3-[(1,3-benzodioxol-5-ylsulfonyl)(isobutyl)amino]-2-hydroxy-1-[4-(2-[([methylamino]carbonyl)amino]ethoxy)benzyl]propylcarbamate]: the 50% inhibitory concentration (IC50) (with HIV-1 (strain IIIB) (setting [6]); in assay [1] (setting [10]); in assay [2] (setting [11])) was 10 to 100 nM in each case.
With `CC(C)CN(C[C@@H](O)[C@H](Cc1ccc(OCc2ccccn2)cc1)NC(=O)O[C@H]1CO[C@H]2OCC[C@H]21)S(=O)(=O)c1ccc2c(c1)OCO2` [Compound 53, Bis-THF Methylenedioxybenzenesulfonamide 2-picolyl Tethered Product], the half-maximal inhibitory concentration (IC50) (in the assay with HIV-1 (strain IIIB) (setting [6]); in the assay on HIV-1 (strain IIIB) (setting [7]); in assay [1] (setting [8]); in assay [2] (setting [9])) was 1 to 10 nM throughout.
As for `CC(C)CN(CC(O)[C@H](Cc1ccc(OCc2ccccn2)cc1)NC(=O)O[C@H]1CO[C@H]2OCC[C@H]21)S(=O)(=O)c1ccc2c(c1)OCCO2` (stereo in doubt) [Compound 337, (3R,3aS,6aR)-hexahydrofuro[2,3-b]furan-3-yl (1S,2S)-3-[(2,3-dihydro-1,4-benzodioxin-6-ylsulfonyl)(isobutyl)amino]-2-hydroxy-1-[4-(2-pyridinylmethoxy)benzyl]propylcarbamate], the concentration for half-maximal inhibition (IC50) (with HIV-1 (strain IIIB) (setting [6]); in assay [1] (setting [8]); in assay [2] (setting [9])) was 1 to 10 nM throughout.
In the case of `Cc1nc(COc2ccc(C[C@H](NC(=O)O[C@H]3CO[C@H]4OCC[C@H]43)[C@H](O)CN(CC(C)C)S(=O)(=O)c3ccc4c(c3)OCO4)cc2)cs1` [Compound 368], the concentration for half-maximal inhibition (IC50) is less than 1 nM in the assay with HIV-1 (strain IIIB) (setting [3]), 1 to 10 nM in assay [1] (setting [4]) and less than 1 nM in assay [2] (setting [5]).
For `CC(C)CN(C[C@@H](O)[C@H](Cc1ccc(OCCc2ccccc2)cc1)NC(=O)O[C@H]1CO[C@H]2OCC[C@H]21)S(=O)(=O)c1ccc2c(c1)OCO2` [Compound 202, (3R,3aS,6aR)hexahydrofuro[2,3-b]furan-3-yl (1S,2R)-3-[(1,3-benzodioxol-5-ylsulfonyl)(isobutyl)amino]-2-hydroxy-1-[4-(phenethyloxy)benzyl]propylcarbamate], the concentration for half-maximal inhibition (IC50) is less than 1 nM with HIV-1 (strain IIIB) (setting [6]), 1 to 10 nM in assay [1] (setting [8]) and less than 1 nM in assay [2] (setting [9]).
Regarding `CC(C)CN(C[C@@H](O)[C@H](Cc1ccc(OCc2ccc3ccccc3c2)cc1)NC(=O)O[C@H]1CO[C@H]2OCC[C@H]21)S(=O)(=O)c1ccc2c(c1)OCO2` [Compound 376, (3R,3aS,6aR)-hexahydrofuro[2,3-b]furan-3-yl (1S,2R)-3-[(1,3-benzodioxol-5-ylsulfonyl)(isobutyl)amino]-2-hydroxy-1-[4-(2-naphthylmethoxy)benzyl]propylcarbamate], the values for the IC50 (with HIV-1 (strain IIIB) (setting [6]); in assay [1] (setting [8]); in assay [2] (setting [9])) were 1 to 10 nM, 10 to 100 nM and 10 to 100 nM, respectively.
In the case of `CC(C)CN(C[C@@H](O)[C@H](Cc1ccc(OC(=O)N(C)C)cc1)NC(=O)O[C@H]1CO[C@H]2OCC[C@H]21)S(=O)(=O)c1ccc2c(c1)OCO2` [Compound 311, (3R,3aS,6aR)-Hexahydrofuro[2,3-b]furan-3-yl (1S,2R)-3[(1,3-benzodioxol-5-ylsulfonyl)(isobutyl)amino]-1-(4-{[(dimethylamino)carbonyl]oxy}benzyl)-2-hydroxypropylcarbamate], the half-inhibitory concentration (IC50) with HIV-1 (strain IIIB) (setting [6]) is 1 to 10 nM; in assay [1] (setting [10]), 10 to 100 nM; in assay [2] (setting [11]), 1 to 10 nM.
Regarding `CC(C)CN(C[C@@H](O)[C@H](Cc1ccc(OCc2cccc(C#N)c2)cc1)NC(=O)O[C@H]1CO[C@H]2OCC[C@H]21)S(=O)(=O)c1ccc2c(c1)OCCO2` [Compound 338, (3R,3aS,6aR)-hexahydrofuro[2,3-b]furan-3-yl (1S,2R)-1-{4-[(3-cyanobenzyl)oxy]benzyl}-3-[(2,3-dihydro-1,4-benzodioxin-6-ylsulfonyl)(isobutyl)amino]-2-hydroxypropylcarbamate], the IC50 (in the assay on HIV-1 (strain IIIB) (setting [6]); in assay [1] (setting [8]); in assay [2] (setting [9])) was 1 to 10 nM throughout.
As for `CC(C)CN(C[C@@H](O)[C@H](Cc1ccc(OCCCCN)cc1)NC(=O)O[C@H]1CO[C@H]2OCC[C@H]21)S(=O)(=O)c1cccc(N)c1` [Compound 292], the half-maximal inhibitory concentration (IC50) (with HIV-1 (strain IIIB) (setting [6]); in assay [1] (setting [8]); in assay [2] (setting [9])) was 10 to 100 nM in each case.
Turning to `CC(C)CN(C[C@@H](O)[C@H](Cc1ccc(OCCCNc2ncccn2)cc1)NC(=O)OC1CO[C@H]2OCC[C@@H]12)S(=O)(=O)c1ccc2c(c1)OCO2` (stereo in doubt) [Compound 271, (3R,3aS,6aR)-hexahydrofuro[2,3-b]furan-3-yl (1S,2R)-3-[(1,3-benzodioxol-5-ylsulfonyl)(isobutyl)amino]-2-hydroxy-1-{4-[3-(2-pyrimidinylamino)propoxy]benzyl}propylcarbamate], the 50% inhibitory concentration (IC50) (in the assay on HIV-1 (strain IIIB) (setting [6]); in assay [1] (setting [8]); in assay [2] (setting [9])) was 1 to 10 nM throughout.
`CC(C)CN(C[C@@H](O)[C@H](Cc1ccc(OCCNS(C)(=O)=O)cc1)NC(=O)O[C@H]1CO[C@H]2OCC[C@H]21)S(=O)(=O)c1ccc2c(c1)OCO2` [Compound 357, (3R,3aS,6aR)hexahydrofuro[2,3-b]furan-3-yl (1S,2R)-3-[(1,3-benzodioxol-5-ylsulfonyl)(isobutyl)amino]-2-hydroxy-1-[4-(2-[(methylsulfonyl)amino]ethoxy)benzyl]propylcarbamate]: the values for the IC50 (in the assay on HIV-1 (strain IIIB) (setting [6]); in assay [1] (setting [10]); in assay [2] (setting [11])) were 10 to 100 nM, 10 to 100 nM and 1 to 10 nM, respectively.
As to `CC(C)CN(C[C@@H](O)[C@H](Cc1ccc(OCCCCO)cc1)NC(=O)O[C@H]1CO[C@H]2OCC[C@H]21)S(=O)(=O)c1ccc2c(c1)OCO2` [Compound 317, (3R,3aS,6aR)-Hexahydrofuro[2,3-b]furan-3-yl (1S,2R)-3-[(1,3-benzodioxol-5-ylsulfonyl)(isobutyl)amino]-2-hydroxy-1-[4-(4-hydroxybutoxy)benzyl]propylcarbamate], the half-inhibitory concentration (IC50) (in the assay on HIV-1 (strain IIIB) (setting [6]); in assay [1] (setting [8]); in assay [2] (setting [9])) was 1 to 10 nM in each case.
